Measured values: patent US20160256433A1, “Formulations Containing Amorphous Dapagliflozin” (SANDOZ AG, priority 2013, published 2016)
Converted amounts (≈) assume the structure as drawn. Read-outs that look alike come from different tables or passages of the source.

Columns and labels:
[1] = physchem; settings: for solubility at 24 h: thermodynamic from solid
[2] = for water absorbed: at 80% relative air humidity (RH)
[3] = for pH of suspension after 24 hours of testing: 37° C.
[4] = medium of pH 1.2, 37 °C, pH 1.2, simulated gastric fluid
[5] = medium of pH 6.8, 37 °C, pH 6.8, aqueous buffer

SMILES | solubility at 24 h [1, 4] | solubility at 24 h [1, 5] | solubility at 24 h ([1]; water, 37 °C) | water absorbed [2] | pH of suspension after 24 hours of testing ([3]; medium pH 1.2) | pH of suspension after 24 hours of testing ([3]; medium pH 6.8) | pH of suspension after 24 hours of testing ([3]; medium water) | other results
CCOc1ccc(Cc2cc([C@@H]3O[C@H](CO)[C@@H](O)[C@H](O)[C@H]3O)ccc2Cl)cc1 | 1700 µg/mL (≈ 4160 µM) | 1700 µg/mL (≈ 4160 µM) | 1800 µg/mL (≈ 4400 µM) | around 0.8% | 1.3 | 6.8 | 3.2 | 
CCOc1ccc(Cc2cc([C@@H]3OC(CO)[C@@H](O)C(O)C3O)ccc2Cl)cc1 (stereo partly drawn) [amorphous dapagliflozine, (2S,3R,4R,5S,6R)-2-[4-chloro-3-(4-ethoxybenzyl)phenyl]-6-(hydroxymethyl)tetrahydro-2H-pyran-3,4,5-triole] | 1200 µg/mL (≈ 2930 µM) | 1200 µg/mL (≈ 2930 µM) | 1200 µg/mL (≈ 2930 µM) | around 6% | 1.2 | 6.7 | 7.4 | solubility at 24 h ([1]; medium of pH 3.0, 37 °C, pH 3, aqueous buffer): 1100 µg/mL (≈ 2690 µM); solubility at 24 h ([1]; medium of pH 4.5, 37 °C, pH 4.5, aqueous buffer): 1200 µg/mL (≈ 2930 µM); solubility at 24 h ([1]; medium of pH 7.4, 37 °C, pH 7.4, aqueous buffer): 700 µg/mL (≈ 1710 µM); solubility ([1]; water): ~1000 µg/mL (≈ 2450 µM); water irreversibly absorbed ([2]; during the first sorption/desorption cycle): around 3%; Desciptive term (solubility) ([3]; medium pH 1.2): Slightly soluble; Desciptive term (solubility) ([3]; medium pH 3.0): Slightly soluble; pH of suspension after 24 hours of testing ([3]; medium pH 3.0): 2.9; Desciptive term (solubility) ([3]; medium pH 4.5): Slightly soluble; pH of suspension after 24 hours of testing ([3]; medium pH 4.5): 4.5; Desciptive term (solubility) ([3]; medium pH 6.8): Slightly soluble; Desciptive term (solubility) ([3]; medium pH 7.4): Very slightly soluble; pH of suspension after 24 hours of testing ([3]; medium pH 7.4): 7.2; Desciptive term (solubility) ([3]; medium water): Slightly soluble
